Experiments:
[1] = tested on: HeLa cells (HeLa-Luc) expressing luciferase; experiment: Luc siRNA delivery, luminescence intensity in luciferase-expressing HeLa cells; type: cell-based; conditions: Luc siRNA LNP 5 nM/well, 24 hours, FIG. 3
Method: The test was conducted by delivering siRNA molecules, which inhibit the expression of luciferase enzyme, into engineered HeLa cells (HeLa-Luc) expressing luciferase using each lipid nanoparticle synthesized with various amine headgroups (Compound 1 to Compound 5, Compound 11, and Compound 12). The expression of the gene was confirmed by measuring the luminescence intensity.
Specifically, lipid nanoparticles encapsulated with Luc siRNAs (SEQ ID NOs: 4 and 5) at a concentration of 5 nM/well (based on siRNA concentration) were treated into the Hella cell line (Nexel, Korea) seeded in 96-well plate at […]. After 24 hours, the cells were treated with 100 μl/well of Bright-Glo™ luciferase assay solution (promega, USA) and left at room temperature for 10 minutes, and then the luminescence intensity of the lysed cells was measured using an Infinite M200 plate reader (Tecan, USA) (FIG. 3).

[2] = tested on: hepatocytes (HeLa); experiment: GFP mRNA delivery, fluorescence intensity of lysed cells; type: cell-based; conditions: GFP mRNA LNP 0.1 μg/well, 24 hours, FIG. 4
Method: The test was conducted by delivering GFP mRNA molecules into hepatocytes (HeLa) using each lipid nanoparticle synthesized with various amine headgroups (Compound 1 to Compound 5, Compound 11, and Compound 12). The expression of the gene was confirmed by measuring the […] intensity.
Specifically, lipid nanoparticles encapsulated with 100 ng GFP mRNA (SEQ ID NO: 6) at a concentration of 0.1 μg/well (based on mRNA concentration) were treated into the hepatocyte line (Nexel, Korea) seeded in 96-well plate at 1×10^5 cells/well. After 24 hours, the cells were treated with 100 μl/well of cell lysis buffer (Thermofischer, US) and left at room temperature for 10 minutes, and then the fluorescence intensity of the lysed cells was measured using an Infinite M200 plate reader (Tecan, USA) (FIG. 4).

[3] = tested on: C57BL/6 mice; experiment: Luc mRNA delivery via intravenous injection, bioluminescence by IVIS; type: in vivo; conditions: 0.1 mg/kg Luc mRNA, 3 hours, SM-102 control, FIG. 7
Method: To investigate the mRNA delivery of the 221-SS lipid nanoparticles, luciferase mRNA was delivered into mice, and gene expression was confirmed by bioluminescence.
Specifically, 221-SS 3 tail lipid nanoparticles encapsulated with Luc mRNA (SEQ ID NO: 1) were manufactured by the method of Example 2-3 above. The prepared lipid nanoparticles were injected intravenously into 7-week-old C57BL/6 mice at a dose of 0.1 mg/kg (based on mRNA), and 3 hours later, luciferin 0.25 mg/kg was administered intraperitoneally and bioluminescence was confirmed by IVIS (PerkinElmer, USA).
Next, in order to confirm the effect of the number of disulfide bond chains (tails), an in vivo assay using lipid nanoparticles encapsulated with 2 μg (0.1 mg/kg) of Luc mRNA (SEQ ID NO: 1) containing either 221-SS 3-tail (Compound 5) or 221-SS 4-tail (Compound 6) was performed via intravenous injection. The same experiment was also performed using lipid nanoparticles manufactured from a 1:1 mixture of 221-SS 3 chain and 221-SS 4 chain, wherein SM-102, FDA-approved ionizable lipid, was used as a control group.
Specifically, the respective lipid nanoparticles were injected intravenously into 7-week-old C57BL/6 mice at a dose of 0.1 mg/kg (based on mRNA), and 3 hours later, luciferin 0.25 mg/kg was administered intraperitoneally and bioluminescence was confirmed by IVIS (PerkinElmer, USA).

[4] = tested on: C57BL/6 mice; experiment: Luc mRNA delivery via intramuscular injection, bioluminescence by IVIS; type: in vivo; conditions: 0.1 mg/kg Luc mRNA, 3 hours, SM-102 control, FIG. 9
Method: Luc mRNA (SEQ ID NO: 1) was delivered to mice by intramuscular injection, and gene expression was confirmed by bioluminescence.
Specifically, lipid nanoparticles (221-SS 3 tail, 221-SS 4 tail alone and mixed) containing Luc mRNA were manufactured, as described above, followed by intramuscular injection into C57BL/6 mice at a concentration of 0.1 mg/kg (based on mRNA). After 3 hours, luciferin 0.25 mg/kg was administered intraperitoneally and bioluminescence was confirmed by IVIS (PerkinElmer, USA).

| SMILES | luminescence intensity (Luc siRNA delivery) [1] | fluorescence intensity (GFP mRNA delivery) [2] | bioluminescence according to number of chains [3] | bioluminescence according to number of chains [4] |
| --- | --- | --- | --- | --- |
| CCCCCCCCCCCCSSCCNCCCN(C)CCCN(CCSSCCCCCCCCCCCC)CCSSCCCCCCCCCCCC [Compound 5] | higher efficiency | higher efficiency | better effects than the negative control | superior to the negative control |
| CCCCCCCCCCCCSSCCN(CCCN(C)CCCN(CCSSCCCCCCCCCCCC)CCSSCCCCCCCCCCCC)CCSSCCCCCCCCCCCC [Compound 6] | – | – | better effects than the negative control | superior to the negative control |
| CCCCCCCCCCCCSSCCN(CCSSCCCCCCCCCCCC)CCN(C)C [Compound 1] | higher efficiency | higher efficiency | – | – |

Source: patent publication US20260000624A1, “IONIZABLE LIPID CONTAINING BIODEGRADABLE DISULFIDE BOND AND LIPID NANOPARTICLES COMPRISING SAME” (ST PHARM CO., LTD., priority 2022, published 2026)
